Data: the supplement of paper PMC10307832

How the values were obtained:
Experiment in all cases: relative viability (nuclei count vs DMSO), 5 days (fraction); higher = more cells survive
NVP-TAE684 + Phenformin = compound: COc1cc(N2CCC(N3CCN(C)CC3)CC2)ccc1Nc1ncc(Cl)c(Nc2ccccc2S(=O)(=O)C(C)C)n1 [NVP-TAE684] + N=C(N)NC(=N)NCCc1ccccc1 [Phenformin] (partner 250 µM)
In short: (§1)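 One day after seeding in 1536-well plates, lung cancer cell lines were dosed by pin tool. Dosing was either single-drug or a fixed anchor-drug dose plus five library-drug doses (not always all listed) in √10 steps. After 5 days, nuclei were stained in one fix-and-stain step and counted on 4× images, and relative viability is the nuclei count of treated wells over that of vehicle wells, given as the median of duplicate plates.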

[1] = compound: C1=CC=C2C(=C1)N=C(S2)C(C#N)C3=NC(=NC=C3)NCCC4=CN=CC=C4 + CC(C)C[C@H](NC(=O)[C@H](Cc1ccccc1)NC(=O)c1cnccn1)B(O)O [Bortezomib] (partner 0.002 µM)
In short: as §1

[2] = compound: C1=CC=C2C(=C1)N=C(S2)C(C#N)C3=NC(=NC=C3)NCCC4=CN=CC=C4 + Cc1nc(Nc2ncc(C(=O)Nc3c(C)cccc3Cl)s2)cc(N2CCN(CCO)CC2)n1 [Dasatinib] (partner 0.075 µM)
In short: as §1

CUDC-101 + Palbociclib = compound: C#Cc1cccc(Nc2ncnc3cc(OC)c(OCCCCCCC(=O)NO)cc23)c1 [CUDC-101] + CC(=O)c1c(C)c2cnc(Nc3ccc(N4CCNCC4)cn3)nc2n(C2CCCC2)c1=O [Palbociclib] (partner 0.5 µM)
In short: as §1

| Cell Line | relative viability (NVP-TAE684 + Phenformin; first compound 0.2 µM) | relative viability (NVP-TAE684 + Phenformin; first compound 0.6325 µM) | relative viability (NVP-TAE684 + Phenformin; first compound 2 µM) | relative viability ([1]; first compound 0.005 µM) | relative viability ([1]; first compound 0.01581 µM) | relative viability ([1]; first compound 0.05 µM) | relative viability ([1]; first compound 0.1581 µM) | relative viability ([1]; first compound 0.5 µM) | relative viability ([2]; first compound 0.005 µM) | relative viability ([2]; first compound 0.01581 µM) | relative viability ([2]; first compound 0.05 µM) | relative viability ([2]; first compound 0.1581 µM) | relative viability ([2]; first compound 0.5 µM) | relative viability (CUDC-101 + Palbociclib; first compound 0.01 µM) | relative viability (CUDC-101 + Palbociclib; first compound 0.03162 µM) | relative viability (CUDC-101 + Palbociclib; first compound 0.1 µM) | relative viability (CUDC-101 + Palbociclib; first compound 0.3162 µM) | relative viability (CUDC-101 + Palbociclib; first compound 1 µM) |
| --- | --- | --- | --- | --- | --- | --- | --- | --- | --- | --- | --- | --- | --- | --- | --- | --- | --- | --- |
| NCI-H2085 | 0.753 | 0.694 | 0.694 | 0.861 | 1.05 | 0.781 | 1.24 | 0.94 | 0.277 | 0.216 | 0.236 | 0.237 | 0.219 | 0.438 | 0.468 | 0.47 | 0.463 | 0.466 |
| NCI-H2087 | 0.501 | 0.436 | 0.33 | 0.567 | 0.809 | 0.786 | 0.834 | 0.512 | 0.72 | 0.927 | 0.81 | 1.09 | 0.651 | 0.284 | 0.21 | 0.238 | 0.264 | 0.168 |
| NCI-H2126 | 0.53 | 0.468 | 0.361 | 1.07 | 1.15 | 1.06 | 1.16 | 1.11 | 0.603 | 0.543 | 0.573 | 0.584 | 0.49 | 0.355 | 0.346 | 0.337 | 0.364 | 0.352 |
| NCI-H2228 | 0.23 | 0.158 | 0.113 | 0.828 | 1.09 | 1.16 | 1.1 | 0.997 | 0.295 | 0.491 | 0.442 | 0.514 | 0.423 | 0.891 | 1.09 | 0.874 | 0.805 | 0.664 |
| NCI-H2347 | 0.252 | 0.302 | 0.294 | 1.12 | 1.07 |  | 1.13 | 0.962 | 0.359 | 0.814 | 0.261 | 0.347 | 0.307 | 0.469 | 0.431 | 0.429 | 0.435 | 0.418 |
| NCI-H2405 | 0.395 | 0.417 | 0.312 | 1.04 | 0.965 | 0.982 |  | 0.998 | 0.214 | 0.187 | 0.168 | 0.234 | 0.219 | 0.523 | 0.513 | 0.585 | 0.584 | 0.506 |
| NCI-H3122 | 0.156 | 0.131 | 0.125 | 0.877 | 1.05 | 0.958 | 1.05 | 1.07 | 0.826 | 0.824 | 0.873 | 1.03 | 0.686 | 0.206 | 0.214 | 0.187 | 0.177 | 0.175 |
| PC-3 [JPC-3] | 0.477 | 0.436 | 0.454 | 0.527 | 0.854 | 0.826 | 0.923 | 0.81 | 0.877 | 1.07 | 0.962 | 1.08 | 0.73 | 0.465 | 0.574 | 0.493 | 0.527 | 0.481 |
| PC-14 | 0.505 | 0.488 | 0.537 | 0.665 | 1.12 | 0.9 | 0.965 | 0.679 | 0.174 | 0.228 | 0.211 | 0.32 | 0.249 | 0.629 | 0.425 | 0.338 | 0.0958 | 0.0539 |
| RERF-LC-KJ | 0.394 | 0.334 | 0.257 | 1.02 | 1.12 | 0.971 | 1.16 | 0.905 | 0.796 | 0.863 | 0.756 | 0.952 | 0.527 | 1.15 | 1.16 | 1.01 | 0.844 | 0.813 |
| SK-LU-1 | 0.577 | 0.413 | 0.303 | 0.871 |  | 0.998 | 1.42 | 1.23 | 0.174 | 0.184 | 0.189 | 0.188 | 0.199 | 0.371 | 0.354 | 0.407 | 0.455 | 0.311 |
| SW 1573 | 0.307 | 0.249 | 0.128 | 0.659 | 1.26 |  | 1.1 | 0.936 | 0.587 | 0.44 |  | 0.494 | 0.324 | 0.376 | 0.346 | 0.441 | 0.501 | 0.315 |
